From patent US10800772B2 (Gilead Sciences, Inc., priority 2016, dated 2020)
Read-outs that look alike come from different tables or passages of the source.

Assays:
Type in all cases: cell-based, HIV-1
HIV-IIIb (wildtype) = test: Antiviral assay in MT4 cells, HIV-IIIb wildtype; details: read-out: WT EC50
Experimental: (§1) Antiviral Assay in MT4 Cells
(§2) For the antiviral assay, 0.4 μL of 189X test concentration of 3-fold serially diluted compound in DMSO was added to 40 μL of cell growth medium (RPMI 1640, 10% FBS, 1% Penicillin-Streptomycin, 1% L-Glutamine, 1% HEPES) in each well of 384-well plate (10 concentrations) in quadruplicate.
(§3) 1 mL Aliquots of MT4 cells were pre-infected for 3 hours at 37° C. with 25 μL of cell growth medium (mock-infected) or a fresh 1:250 dilution of an HIV-IIIb (wildtype, IN T174I BT, or IN T174I DE) concentrated ABI stock (0.004 m.o.i.). IN T174I BT virus was derived from viral breakthrough (BT) assay as described in Mulato, A.; Hansen, D.; Thielen, A.; Porter, D.; Stepan, G.; White, K.; Daeumer, M.; Cihlar, T.; Yant, S. R. AIDS Research and Human Retrovirues, July 2016, ahead of print. doi:10.1089/aid.2016.0071. IN T174I DE virus was derived from serial passaging with dose escalation (DE) of test compound. Infected and uninfected cells were diluted in cell growth media and 35 μL (2000 cells) was added to each well of the assay plates.
(§4) Assay plates were then maintained in a humidified, 5% CO2 incubator at 37° C. After 5 days of incubation, 25 μl of 2× concentrated CellTiter-Glo™ Reagent (catalog # G7573, Promega Biosciences, Inc., Madison, Wis.) was added to each well of the assay plate. Cell lysis was carried out by incubating at room temperature for 10 minutes and then chemiluminescence was read using an Envision plate reader (PerkinElmer). EC50 values were calculated as the compound concentration that caused a 50% […] in luminescence signal, a measure of HIV-1 replication.

HIV-IIIb IN T174I BT = test: Antiviral assay in MT4 cells, HIV-IIIb IN T174I BT virus (from viral breakthrough)
Experimental: as §1, §2, §3, §4

HIV-IIIb IN T174I DE = test: Antiviral assay in MT4 cells, HIV-IIIb IN T174I DE virus (from dose escalation passaging)
Experimental: as §1, §2, §3, §4

[1] = Human immunodeficiency virus 1, IIIB, MT4, 120 h
[2] = Human immunodeficiency virus 1, IIIB, MT4, 120 h, read-out: T174I BT EC50, MT4 cells, HIV-IIIb IN T174I BT (viral breakthrough), 5 days, CellTiter-Glo
[3] = Human immunodeficiency virus 1, IIIB, MT4, 120 h, read-out: T174I DE EC50, MT4 cells, HIV-IIIb IN T174I DE (dose escalation), 5 days, CellTiter-Glo

Row | Compound | EC50 (HIV-IIIb (wildtype); [1]) [µM] | EC50 (HIV-IIIb IN T174I BT; [2]) [µM] | EC50 (HIV-IIIb IN T174I DE; [3]) [µM] | EC50 (HIV-IIIb (wildtype); MT4 cells, HIV-IIIb wildtype, 5 days, CellTiter-Glo) [µM] | EC50 (HIV-IIIb IN T174I BT; MT4 cells, HIV-IIIb IN T174I BT (viral breakthrough), 5 days, CellTiter-Glo, read-out: T174I BT EC50) [µM] | EC50 (HIV-IIIb IN T174I DE; MT4 cells, HIV-IIIb IN T174I DE (dose escalation), 5 days, CellTiter-Glo, read-out: T174I DE EC50) [µM] | EC50 (HIV-IIIb (wildtype); Human immunodeficiency virus 1, 120 h, MT4 cells, HIV-IIIb wildtype, 5 days, CellTiter-Glo) [µM]
1 | Cc1cc2nc(-c3ccc4c(n3)c(C3CCN([C@H]5C[C@H](O)C5)CC3)nn4C)sc2c(-c2ccc(Cl)cc2)c1[C@H](OC(C)(C)C)C(=O)O [Compound 186, (S)-2-(tert-butoxy)-2-(7-(4-chloro-phenyl)-2-(3-(1-((1r,3r)-3-hydroxy-cyclobutyl)piperidin-4-yl)-1-methyl-1H-pyrazolo[4,3-b]pyridin-5-yl)-5-methylbenzo[d]thiazol-6-yl) acetic acid] | 0.029 | 0.367 | 0.784 | – | – | – | –
2 | CCN1CCN(c2nn(C)c3ccc(-c4nc5cc(C)c([C@H](OC(C)(C)C)C(=O)O)c(-c6ccc(Cl)cc6)c5s4)cc23)C(=O)C1 [Compound 86, (S)-2-(tert-butoxy)-2-(7-(4-chlorophenyl)-2-(3-(4-ethyl-2-oxopiperazin-1-yl)-1-methyl-1H-indazol-5-yl)-5-methylbenzo[d]thiazol-6-yl)acetic acid] | 0.015 | 2.33 | 2 | – | – | – | –
3 | COC(=O)N1CC(N2CCC(c3nn(C(F)F)c4ccc(-c5nc6cc(C)c([C@H](OC(C)(C)C)C(=O)O)c(-c7ccc(Cl)cc7)c6s5)nc34)CC2)C1 [Compound 14, (S)-2-(tert-butoxy)-2-(7-(4-chlorophenyl)-2-(1-(difluoromethyl)-3-(1-(1-(methoxycarbonyl)azetidin-3-yl)piperidin-4-yl)-1H-pyrazolo[4,3-b]pyridin-5-yl)-5-methylbenzo[d]thiazol-6-yl)acetic Acid] | 0.005 | 0.109 | 0.304 | – | – | – | –
4 | Cc1cc2nc(-c3ccc4c(c3)c(C3CCN(C5COC5)CC3)nn4CC(F)(F)F)sc2c(-c2ccc(Cl)cc2)c1[C@H](OC(C)(C)C)C(=O)O [Compound 41, (S)-2-(tert-butoxy)-2-(7-(4-chlorophenyl)-5-methyl-2-(3-(1-(oxetan-3-yl)piperidin-4-yl)-1-(2,2,2-trifluoroethyl)-1H-indazol-5-yl)benzo[d]thiazol-6-yl)acetic acid] | 3.83 | 4.98 | 5.31 | – | – | – | –
5 | Cc1cc2nc(-c3ccc4c(c3)c(C3CCN(C(=O)C5CCO5)CC3)nn4C)sc2c(-c2ccc(Cl)cc2)c1[C@H](OC(C)(C)C)C(=O)O (stereo partly drawn) [Compound 159, (2S)-2-(tert-butoxy)-2-(7-(4-chloro-phenyl)-5-methyl-2-(1-methyl-3-(1-(oxetane-2-carbonyl)piperidin-4-yl)-1H-indazol-5-yl)benzo[d]thiazol-6-yl) acetic acid] | 0.011 | 0.43 | 0.583 | – | – | – | –
6 | Cc1cc2nc(-c3ccc4c(c3)c(C3CN(C(C)C)C3)nn4C)sc2c(-c2ccc(Cl)cc2)c1[C@H](OC1CC1)C(=O)O [Compound 55, (S)-2-(7-(4-chlorophenyl)-2-(3-(1-isopropylazetidin-3-yl)-1-methyl-1H-indazol-5-yl)-5-methylbenzo[d]thiazol-6-yl)-2-cyclopropoxyacetic Acid] | 0.036 | 0.372 | 1.07 | – | – | – | –
7 | Cc1cc2nc(-c3ccc4c(c3)c(N3CC5(CCCCC5)C3)nn4C)sc2c(-c2ccc(Cl)cc2)c1[C@H](OC(C)(C)C)C(=O)O [Compound 97, (S)-2-(tert-butoxy)-2-(7-(4-chlorophenyl)-5-methyl-2-(1-methyl-3-(2-azaspiro[3.5]nonan-2-yl)-1H-indazol-5-yl)benzo[d]thiazol-6-yl)acetic acid] | 0.15 | 6.81 | 9.19 | – | – | – | –
8 | Cc1cc2nc(-c3ccc4c(c3)c(C3CN(C(C)C)C3)nn4C)sc2c(-c2ccc(Cl)cc2)c1[C@H](OC(C)(C)C)C(=O)O [Compound 54, (S)-2-(tert-butoxy)-2-(7-(4-chlorophenyl)-2-(3-(1-isopropylazetidin-3-yl)-1-methyl-1H-indazol-5-yl)-5-methylbenzo[d]thiazol-6-yl)acetic acid] | 0.006 | 1.83 | 3.29 | – | – | – | –
9 | CCN1CC(c2nn(C)c3ccc(-c4nc5cc(C)c([C@H](OC(C)(C)C)C(=O)O)c(-c6ccc(Cl)cc6)c5s4)cc23)C1 [Compound 58, (S)-2-(tert-butoxy)-2-(7-(4-chlorophenyl)-2-(3-(1-ethylazetidin-3-yl)-1-methyl-1H-indazol-5-yl)-5-methylbenzo[d]thiazol-6-yl)acetic acid] | 0.009 | 1.93 | 3.09 | – | – | – | –
10 | CC(=O)N1CC(N2CCC(c3nn(C)c4ncc(-c5nc6cc(C)c([C@H](OC(C)(C)C)C(=O)O)c(-c7ccc(Cl)cc7)c6s5)cc34)CC2)C1 [Compound 117, (S)-2-(2-(3-(1-(1-acetylazetidin-3-yl)piperidin-4-yl)-1-methyl-1H-pyrazolo[3,4-b]pyridin-5-yl)-7-(4-chlorophenyl)-5-methylbenzo[d]thiazol-6-yl)-2-(tert-butoxy)acetic acid] | 0.027 | 1.18 | 1.69 | – | – | – | –
11 | (S)-2-(2-(3-(1- ((R)-1-acetyl- pyrrolidin-3-yl) piperidin-4-yl)- 1-methyl-1H- pyrazolo[4,3-b] pyridin-5-yl)-7- (4-chlorophenyl)- 5-methylbenzo[d] thiazol-6-yl)-2- (tert-butoxy) acetic acid [Compound 169] | – | – | – | 0.002 | 0.036 | 0.086 | –
12 | Cc1cc2nc(-c3ccc4c(c3)c(N3CC(C)(C)NC3=O)nn4C)sc2c(-c2ccc(Cl)cc2)c1[C@H](OC(C)(C)C)C(=O)O [Compound 121, (S)-2-(tert-butoxy)-2-(7-(4-chlorophenyl)-2-(3-(4,4-dimethyl-2-oxoimidazolidin-1-yl)-1-methyl-1H-indazol-5-yl)-5-methylbenzo[d]thiazol-6-yl)acetic acid] | 0.039 | 3.48 | 2.69 | – | – | – | –
13 | CCN1CCC(c2nn(C)c3ccc(-c4nc5cc(C)c([C@H](OC(C)(C)C)C(=O)O)c(-c6ccc(Cl)cc6)c5s4)cc23)CC1 [Compound 126, (S)-2-(tert-butoxy)-2-(7-(4-chloro-phenyl)-2-(3-(1-ethylpiperidin-4-yl)-1-methyl-1H-indazol-5-yl)-5-methylbenzo[d]thiazol-6-yl) acetic acid] | 0.008 | 0.551 | 0.54 | – | – | – | –
14 | Cc1cc2nc(-c3ccc4c(c3)c(N3CC5CC(C3)O5)nn4C)sc2c(-c2ccc(Cl)cc2)c1[C@H](OC(C)(C)C)C(=O)O [Compound 143, (2S)-2-(2-(3-(6-oxa-3-azabicyclo [3.1.1]heptan-3-yl)-1-methyl-1H-indazol-5-yl)-7-(4-chlorophenyl)-5-methylbenzo [d]thiazol-6-yl)-2-(tert-butoxy) acetic acid] | – | 5.78 | 5.61 | – | – | – | 0.027
15 | Cc1cc2nc(-c3ccc4c(c3)c(C3CCN(C5COC5)CC3)nn4C3CC3)sc2c(-c2ccc(Cl)cc2)c1[C@H](OC(C)(C)C)C(=O)O [Compound 38, (S)-2-(tert-butoxy)-2-(7-(4-chlorophenyl)-2-(1-cyclopropyl-3-(1-(oxetan-3-yl)piperidin-4-yl)-1H-indazol-5-yl)-5-methylbenzo[d]thiazol-6-yl)acetic acid] | 0.008 | 0.293 | 0.349 | – | – | – | –
16 | Cc1cc2nc(-c3ccc4c(c3)c(C3CCN(C(=O)OC(C)(C)C)CC3)nn4C)sc2c(-c2ccc(Cl)cc2)c1[C@H](OC(C)(C)C)C(=O)O [Compound 23, (S)-2-(tert-butoxy)-2-(2-(3-(1-(tert-butoxycarbonyl)piperidin-4-yl)-1-methyl-1H-indazol-5-yl)-7-(4-chlorophenyl)-5-methylbenzo[d]thiazol-6-yl)acetic Acid] | 0.099 | 0.987 | 0.356 | – | – | – | –
17 | CC(=O)N1CC(N2CCC(c3nn(C(F)F)c4ccc(-c5nc6cc(C)c([C@H](OC(C)(C)C)C(=O)O)c(-c7ccc(Cl)cc7)c6s5)cc34)CC2)C1 [Compound 43, (S)-2-(2-(3-(1-(1-acetylazetidin-3-yl)piperidin-4-yl)-1-(difluoromethyl)-1H-indazol-5-yl)-7-(4-chlorophenyl)-5-methylbenzo[d]thiazol-6-yl)-2-(tert-butoxy)acetic acid] | 0.026 | 0.313 | 0.409 | – | – | – | –
